Assay results from patent US12139508B2, “Steroid derivative regulators, method for preparing the same, and uses thereof” (JIANGSU HANSOH PHARMACEUTICAL GROUP CO., LTD., priority 2018, dated 2024).
Like-named read-outs stand apart in the source and are kept apart here.

Key:
[1] = Pharmacokinetic assay in Balb/c mice (plasma and brain tissue); format: in vivo; details: mouse, po, 5 mg/kg p.o., male Balb/c mice; for AUC(0-t): read-out: Area under curve AUC0-t; for AUC(0-inf): read-out: Area under curve AUC0-∞; for half-life: read-out: Half-life t1/2 (converted); for MRT: read-out: Mean residence time MRT; for Tmax: read-out: Peak time tmax; for Cmax: read-out: Plasma concentration Cmax
Description: Balb/c mice were used as test animals. The pharmacokinetic behavior in mice (plasma and brain tissue) of the compounds of Examples 2, 3, 5, 6, 9, 13, 59, 60, 61, 63, 71-74, 81, 103, 130, 134, 135, 137, 138, 140, 141, 143, 145 and 146 orally administered at a dose of 5 mg/kg was studied.
Each group had 24 male Balb/c mice. After an overnight fast, Balb/c mice were administered p.o. with the test compound at an administration dose of 5 mg/kg and an administration volume of 10 mL/kg.
0.2 ml of blood was taken from the heart before administration and at 0, 0.5, 1, 2, 4, 6, 8 and 24 hours after administration. The samples were stored in EDTA-K2 tubes, and centrifuged for 6 minutes at 4° C., 6000 rpm to separate the plasma. The plasma samples were stored at −80° C. The mice were sacrificed with CO2, and the whole brain tissue was taken out, weighed, placed in a 2 mL centrifuge tube and stored at −80° C.
1) 160 μL of acetonitrile was added to 40 μL of the plasma sample for precipitation, and then the mixture was centrifuged for 5-20 minutes at 3500×g.
2) 90 μL of acetonitrile containing the internal standard (100 ng/mL) was added to 30 μL of the plasma and brain homogenate samples for precipitation, and then the mixture was centrifuged for 8 minutes at 13000 rpm.
3) 70 μL of the treated supernatant was taken and added to 70 μL of water, and mixed by vortex for 10 minutes. 20 μL of the mixture was taken to analyze the concentration of the test compound by LC/MS/MS. LC/MS/MS analysis instrument: AB Sciex API 4000 Qtrap.
• Liquid chromatography condition: Shimadzu LC-20AD pump. • Chromatographic column: Agilent ZORBAX™ XDB-C18 (50×2.1 mm, 3.5 μm) (note: Aglient ZORBAX™ is a kind of column used in the reverse HPLC); • Mobile phase: Eluent A was 0.10% formic acid in water, and Eluent B was acetonitrile. • Flow rate: 0.4 mL/min • Elution time: 0-4.0 minutes, the eluent is as follows:
The main parameters of pharmacokinetics were calculated by WinNonlin 6.1.

GABA-A receptor = experiment: 35S-TBPS binding assay (GABAA receptor binding ability test); set-up: species or system Sprague-Dawley rat; details: rat cerebral cortex cell membrane, 5 μM GABA, 2 nM 35S-TBPS; read-out: 35S-TBPS bindng test: IC50 on inhibiting the TBPS binding activity
Procedure, shortened: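 Rat (male Sprague-Dawley) cortical membranes in PBS were preincubated 5 min at 25° C with compound (from 1 μM, 3-fold, 8 points, 1% DMSO), then 5 μM GABA 5 min, then 2 nM ^35S-TBPS for 20 h at 4° C. Filter-bound counts gave % inhibition against DMSO and 10 μM P026-2 controls; IC50 by 4-parameter fit.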

| Compound | AUC(0-t) ([1]; brain tissue) [ng·h/mL] | AUC(0-inf) ([1]; brain tissue) [ng·h/mL] | half-life ([1]; brain tissue) [h] | MRT ([1]; brain tissue) [h] | Tmax ([1]; brain tissue) [h] | Cmax ([1]; brain tissue) [ng/mL] | AUC(0-t) ([1]; plasma) [ng·h/mL] | AUC(0-inf) ([1]; plasma) [ng·h/mL] | half-life ([1]; plasma) [h] | MRT ([1]; plasma) [h] | Tmax ([1]; plasma) [h] | Cmax ([1]; plasma) [ng/mL] | IC50 (GABA-A receptor) [nM] |
| --- | --- | --- | --- | --- | --- | --- | --- | --- | --- | --- | --- | --- | --- |
| C[C@@H]1C[C@H](C(=O)Cn2cc(C(F)(F)F)cn2)[C@@]2(C)CC[C@H]3[C@@H](CC[C@@H]4C[C@](C)(O)CC[C@@H]43)[C@H]12 [Example 59, 1-((3R,5R,8R,9R,10S,13S,14S,15R,17S)-3-Hydroxy-3,13,15-trimethylhexadecahydro-1H-cyclopenta[a]phenanthren-17-yl)-2-(4-(trifluoromethyl)-1H-pyrazol-1-yl)ethan-1-one] | 2640 | 2680 | 3.18 | 4.81 | 1 | 678 | 1300 | 1320 | 2.99 | 4.15 | 0.5 | 554 | 6.2 |
| C[C@@H]1C[C@H](C(=O)Cn2ncnn2)[C@@]2(C)CC[C@H]3[C@@H](CC[C@@H]4C[C@](C)(O)CC[C@@H]43)[C@H]12 [Example 63, 1-((3R,5R,8R,9R,10S,13S,14S,15R,17S)-3-Hydroxy-3,13,15-trimethylhexadecahydro-1H-cyclopenta[a]phenanthren-17-yl)-2-(2H-tetrazol-2-yl)ethan-1-one] | 603 | 618 | 0.72 | 1.21 | 0.5 | 486 | 599 | 604 | 2.58 | 2.42 | 0.5 | 335 | 6.1 |
| C[C@@]1(O)CC[C@H]2[C@H](CC[C@@H]3[C@@H]2CC[C@@]2(C)[C@H]3[C@@H]3C[C@@H]3[C@@H]2C(=O)COc2cnc(C(F)(F)F)nc2)C1 [Example 130, 1-((2R,4aS,4bR,6aS,7S,7aS,8aR,8bR,8cR,10aR)-2-Hydroxy-2,6a-dimethyloctadecahydrocyclopropa[4,5]cyclopenta[1,2-a]phenanthren-7-yl)-2-((2-(trifluoromethyl)pyrimidin-5-yl)oxy)ethan-1-one] | 2310 | 2630 | 2.49 | 3.88 | 0.5 | 563 | 1390 | 1560 | 2.21 | 3.83 | 0.5 | 307 | 4.2 |
| C[C@@H]1C[C@H](C(=O)Cn2cc(C#N)c(Cl)n2)[C@@]2(C)CC[C@H]3[C@@H](CC[C@@H]4C[C@](C)(O)CC[C@@H]43)[C@H]12 [Example 134, 3-Chloro-1-(2-((3R,5R,8R,9R,10S,13S,14S,15R,17S)-3-hydroxy-3,13,15-trimethylhexadecahydro-1H-cyclopenta[a]phenanthren-17-yl)-2-oxoethyl)-1H-pyrazole-4-carbonitrile] | 3210 | 3500 | 1.59 | 3.22 | 1 | 892 | 4630 | 5130 | 1.78 | 3.31 | 0.5 | 1750 | 6.7 |
| C[C@@H]1C[C@H](C(=O)Cn2nc(C#N)cc2C#N)[C@@]2(C)CC[C@H]3[C@@H](CC[C@@H]4C[C@](C)(O)CC[C@@H]43)[C@H]12 [Example 135, 1-(2-((3R,5R,8R,9R,10S,13S,14S,15R,17S)-3-Hydroxy-3,13,15-trimethylhexadecahydro-1H-cyclopenta[a]phenanthren-17-yl)-2-oxoethyl)-1H-pyrazole-3,5-dicarbonitrile] | 3740 | 4450 | 2.82 | 4.71 | 2 | 724 | 4100 | 4110 | 2.06 | 4.38 | 2 | 640 | 4.3 |
| CC[C@@H]1C[C@H](C(=O)Cn2ccc(C(F)(F)F)n2)[C@@]2(C)CC[C@H]3[C@@H](CC[C@@H]4C[C@](C)(O)CC[C@@H]43)[C@H]12 [Example 138, 1-((3R,5R,8R,9R,10S,13S,14S,15R,17S)-15-Ethyl-3-hydroxy-3,13-dimethylhexadecahydro-1H-cyclopenta[a]phenanthren-17-yl)-2-(3-(trifluoromethyl)-1H-pyrazol-1-yl)ethan-1-one] | 773 | 935 | 1.47 | 2.38 | 0.5 | 314 | 662 | 730 | 1.66 | 2.83 | 0.5 | 432 | 25.2 |
| CC[C@@H]1C[C@H](C(=O)Cn2ccnn2)[C@@]2(C)CC[C@H]3[C@@H](CC[C@@H]4C[C@](C)(O)CC[C@@H]43)[C@H]12 [Example 140, 1-((3R,5R,8R,9R,10S,13S,14S,15R,17S)-15-Ethyl-3-hydroxy-3,13-dimethylhexadecahydro-1H-cyclopenta[a]phenanthren-17-yl)-2-(1H-1,2,3-triazol-1-yl)ethan-1-one] | 4330 | 4540 | 1.21 | 2.1 | 0.5 | 1740 | 5980 | 6110 | 1.19 | 2.22 | 0.5 | 2480 | 33.1 |
| CC[C@@H]1C[C@H](C(=O)Cn2nccn2)[C@@]2(C)CC[C@H]3[C@@H](CC[C@@H]4C[C@](C)(O)CC[C@@H]43)[C@H]12 [Example 141, 1-((3R,5R,8R,9R,10S,13S,14S,15R,17S)-15-Ethyl-3-hydroxy-3,13-dimethylhexadecahydro-1H-cyclopenta[a]phenanthren-17-yl)-2-(2H-1,2,3-triazol-2-yl)ethan-1-one] | 2150 | 2250 | 1.68 | 2.68 | 0.5 | 1050 | 3550 | 3630 | 1.35 | 2.55 | 0.5 | 1630 | 23.9 |
| C[C@@]1(O)CC[C@H]2[C@H](CC[C@@H]3[C@@H]2CC[C@@]2(C)[C@H]3[C@H](C3CC3)C[C@@H]2C(=O)Cn2nc(C#N)cc2C#N)C1 [Example 143, 1-(2-((3R,5R,8R,9R,10S,13S,14S,15S,17S)-15-Cyclopropyl-3-hydroxy-3,13-dimethylhexadecahydro-1H-cyclopenta[a]phenanthren-17-yl)-2-oxoethyl)-1H-pyrazole-3,5-dicarbonitrile] | 8820 | 9220 | 3.95 | 7.81 | 2 | 812 | 6290 | 6490 | 1.7 | 3.08 | 0.5 | 1650 | 28.5 |
